# Assay results as given in US20250026796A1 (priority 2022, published 2025).
# Biological target: SARS-CoV-2 E (2E) (Severe acute respiratory syndrome coronavirus 2, UniProt P0DTC4)
# Format: cell-based
# Chain of SARS-CoV-2 E (2E) (P0DTC4 whole entry, looked up): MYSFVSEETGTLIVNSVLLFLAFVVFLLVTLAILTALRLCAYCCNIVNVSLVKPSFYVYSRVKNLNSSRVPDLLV
sequence,measurement,value
MYSFVSEETGTLIVNSVL [MY18],Relative fluorescent intensity of DND-189 dye (proton homeostasis),significantly restores the proton homeostasis
